Assay results published in ChEMBL document CHEMBL5244218, “Quinolone derivatives and their activities against methicillin-resistant Staphylococcus aureus (MRSA)” (Eur J Med Chem, 2018).
Values after ≈ are worked out from the molar mass of the structure shown.

Legend:
[1] = Cytotoxicity against human HEK293 cells incubated for 72 hrs by MTT assay; format: toxicity, cell-based
[2] = tested on: Staphylococcus aureus; assay: Antibacterial activity against methicillin-resistant Staphylococcus aureus isolates by two fold dilution method; format: functional
[3] = tested on: Staphylococcus aureus; assay: Antibacterial activity against methicillin-resistant Staphylococcus aureus assessed as inhibition of microbial growth; format: functional
[4] = tested on: Staphylococcus aureus; assay: Antibacterial activity against methicillin-resistant Staphylococcus aureus; format: functional
[5] = tested on: Staphylococcus aureus; assay: Antimicrobial activity against methicillin-resistant Staphylococcus aureus clinical isolate 1 measured after 18 hrs by agar dilution method; format: functional
[6] = tested on: Staphylococcus aureus; assay: Antimicrobial activity against methicillin-resistant Staphylococcus aureus clinical isolate 2 measured after 18 hrs by agar dilution method; format: functional
[7] = tested on: Staphylococcus aureus; assay: Antimicrobial activity against methicillin-resistant Staphylococcus aureus assessed as inhibition of microbial growth; format: functional
[8] = tested on: Staphylococcus aureus; assay: Bactericidal activity against methicillin-resistant Staphylococcus aureus assessed as inhibition of microbial growth; format: functional
[9] = tested on: Staphylococcus aureus; assay: Antimicrobial activity against methicillin-resistant Staphylococcus aureus by agar dilution method; format: functional
[10] = tested on: Staphylococcus aureus; assay: Potency index, ratio of norfloxacin MIC to test compound MIC for antimicrobial activity against methicillin-resistant Staphylococcus aureus clinical isolate 1; format: functional
[11] = tested on: Staphylococcus aureus; assay: Potency index, ratio of norfloxacin MIC to test compound MIC for antimicrobial activity against methicillin-resistant Staphylococcus aureus clinical isolate 2; format: functional
[12] = tested on: Staphylococcus aureus; assay: Potency index, ratio of ciprofloxacin MIC to test compound MIC for antimicrobial activity against methicillin-resistant Staphylococcus aureus clinical isolate 1; format: functional
[13] = tested on: Staphylococcus aureus; assay: Potency index, ratio of ciprofloxacin MIC to test compound MIC for antimicrobial activity against methicillin-resistant Staphylococcus aureus clinical isolate 2; format: functional
[14] = tested on: Staphylococcus aureus; assay: Antimicrobial activity against methicillin-resistant Staphylococcus aureus isolates by agar dilution method; format: functional
[15] = tested on: Staphylococcus aureus; assay: Antimicrobial activity against methicillin-resistant Staphylococcus aureus; format: functional, organism-based
[16] = tested on: Staphylococcus aureus; assay: Potency index, ratio of norfloxacin MIC to test compound MIC for antimicrobial activity against methicillin-resistant Staphylococcus aureus; format: functional
[17] = tested on: Staphylococcus aureus; assay: Antimicrobial activity against methicillin-resistant Staphylococcus aureus incubated for 18 hrs by Alamar blue staining based analysis; format: functional
[18] = tested on: Staphylococcus aureus; assay: Antimicrobial activity against methicillin-resistant Staphylococcus aureus incubated for 18 hrs by Agar dilution method; format: functional
[19] = tested on: Staphylococcus aureus; assay: Antimicrobial activity against methicillin-resistant Staphylococcus aureus Mi300 by microbroth dilution method; format: functional
[20] = tested on: Staphylococcus aureus; assay: Antimicrobial activity against methicillin-resistant Staphylococcus aureus Mi339 by microbroth dilution method; format: functional

O=C(O)c1cn(C2CC2)c2c(Cl)c(N3CCN(Cn4nc(-c5ccccc5O)n(Cc5ccc(F)cc5)c4=S)CC3)c(F)cc2c1=O
EC50 at 72 h [1]: 50.5 µM

O=C(O)c1c(=O)c2cc(F)c(N3CCOCC3)c3c2n2c(csc12)CN3
MIC [2]: 0.05 µg/mL (≈ 0.133 µM)

CNCC1CN(c2ccc3c(=O)c(C(=O)O)cn(-c4ccc(F)cc4F)c3n2)CC1(C)C (stereo not drawn)
MIC [3]: 0.015 µg/mL

CCn1cc(C(=O)O)c(=O)c2cc(F)c(N3CCNCC3)cc21 [NORFLOXACIN]
MIC [4]: 8 µg/mL (≈ 25.1 µM) | MIC [5]: 0.78 µg/mL (≈ 2.44 µM) | MIC [6]: 0.78 µg/mL (≈ 2.44 µM) | MIC [7]: < 0.016 µg/mL | MBC [8]: 4 µg/mL

CNCC1(C)CN(c2nc3c(cc2F)c(=O)c(C(=O)O)cn3C2CC2)CC/C1=N\OC (stereo not drawn)
MIC [9]: 64 µg/mL (≈ 148 µM)

O=C(O)c1cn(C2CC2)c2cc(N3CCN(C/C(=N/O)c4ccco4)CC3)c(F)cc2c1=O
MIC [5]: 0.19 µg/mL (≈ 0.418 µM) | MIC [6]: 0.19 µg/mL (≈ 0.418 µM) | Ratio [10]: 4 | Ratio [11]: 4 | Ratio [12]: 2 | Ratio [13]: 2

CC1(C)CN(c2ccc3c(=O)c(C(=O)O)cn(-c4ccc(F)cc4F)c3n2)CC1CN (stereo not drawn)
MIC [3]: 0.015 µg/mL

CCOC(=O)c1ccc(NC2CN(c3c(F)cc4c(=O)c(C(=O)O)cn(C5CC5)c4c3F)C2)cc1
MIC [14]: 0.016 µg/mL (≈ 0.0331 µM)

CCO/N=C1\CCN(c2c(F)cc3c(=O)c(C(=O)O)cn(C4CC4)c3c2F)CC1(C)CN (stereo not drawn)
MIC [15]: 8 µg/mL

O=C(O)c1cn(C2CC2)c2c(F)c(N3CC(N(Cc4ccccc4)Cc4ccccc4)C3)c(F)cc2c1=O
MIC [14]: 0.016 µg/mL (≈ 0.031 µM)

CCn1cc(C(=O)O)c(=O)c2cc(F)c(N3CCN(C/C(=N/O)c4ccc(OC)cc4)CC3)c(F)c21
MIC [15]: 0.2 µM | Ratio [16]: 24

COc1ccc(C(=O)N2CCN(C(=O)N3CCN(c4ccc5c(=O)c(C(=O)O)cn(C6CC6)c5c4)CC3)CC2)c(OC)c1
MIC [7]: < 0.016 µg/mL | MBC [8]: ≥ 128 µg/mL

CC(=O)c1c(N2CC(CN)C(C)(C)C2)cc(N)c2c(=O)c(C(=O)O)cn(C3CC3)c12 (stereo not drawn)
MIC [3]: 0.015 µg/mL

COc1c(N2CC/C(=N/Oc3ccccc3)C(N)C2)c(F)cc2c(=O)c(C(=O)O)cn(C3CC3)c12 (stereo not drawn)
MIC [17]: 0.008 µg/mL (≈ 0.0166 µM)

CCO/N=C1\CCN(c2nc3c(cc2F)c(=O)c(C(=O)O)cn3C2CC2)CC1(C)CNC (stereo not drawn)
MIC [9]: 64 µg/mL (≈ 144 µM)

O=C(O)c1cn(C2CC2)c2cc(N3CCN(C/C(=N/O)c4cccs4)CC3)c(F)cc2c1=O
MIC [5]: 0.19 µg/mL (≈ 0.404 µM) | MIC [6]: 0.19 µg/mL (≈ 0.404 µM) | Ratio [10]: 4 | Ratio [11]: 4 | Ratio [12]: 2 | Ratio [13]: 2

CCc1ccc(O/N=C2/CCN(c3c(F)cc4c(=O)c(C(=O)O)cn(C5CC5)c4c3OC)CC2N)cc1CC (stereo not drawn)
MIC [17]: 0.008 µg/mL (≈ 0.0149 µM)

CO/N=C1\CN(c2nc3c(cc2F)c(=O)c(C(=O)O)cn3C2CC2)CC1CN (stereo not drawn) [GEMIFLOXACIN]
MIC [17]: 4 µg/mL (≈ 10.3 µM) | MIC [18]: 0.06 µg/mL (≈ 0.154 µM)

COc1ccc(O/N=C2/CCN(c3c(F)cc4c(=O)c(C(=O)O)cn(C5CC5)c4c3OC)CC2N)cc1 (stereo not drawn)
MIC [17]: 0.008 µg/mL (≈ 0.0157 µM)

CCOC(=O)c1cn(CC(O)Cn2cncn2)c2c(Cl)cc(Cl)cc2c1=O (stereo not drawn)
Ratio [16]: 8 | MIC [4]: 1 µg/mL (≈ 2.43 µM)

COc1cccc(O/N=C2/CCN(c3c(F)cc4c(=O)c(C(=O)O)cn(C5CC5)c4c3OC)CC2N)c1 (stereo not drawn)
MIC [17]: 0.008 µg/mL (≈ 0.0157 µM)

O=C(O)c1cn(C2CC2)c2c(F)c(N3CC(Nc4ccccc4)C3)c(F)cc2c1=O
MIC [14]: 0.016 µg/mL (≈ 0.0389 µM)

COc1cc(OC)cc(O/N=C2/CCN(c3c(F)cc4c(=O)c(C(=O)O)cn(C5CC5)c4c3OC)CC2N)c1 (stereo not drawn)
MIC [17]: 0.008 µg/mL (≈ 0.0148 µM)

CC(=O)c1c(N2CC(CN)C(C)(C)C2)ccc2c(=O)c(C(=O)O)cn(C3CC3)c12 (stereo not drawn)
MIC [3]: 0.015 µg/mL

CCn1cc(C(=O)O)c(=O)c2cc(F)c(N3CCN(C)CC3)cc21 [PEFLOXACIN]
MIC [2]: 1.56 µg/mL (≈ 4.68 µM)

COc1c(N2CCOCC2)c(F)cc2c(=O)c(C(=O)Nc3nccs3)cn(C3CC3)c12
MIC [4]: > 201 µg/mL

COc1c(N2CCCCC2)c(F)cc2c(=O)c(C(=O)Nc3nccs3)cn(C3CC3)c12
MIC [4]: > 201 µg/mL

O=C(O)c1cn(CC(O)Cn2cncn2)c2cc(C(F)(F)F)ccc2c1=O (stereo not drawn)
Ratio [16]: 8 | MIC [4]: 1 µg/mL (≈ 2.62 µM)

CC1CN(c2c(F)cc3c(=O)c(C(=O)O)c4scc5n4c3c2N(C)C5)CCN1C (stereo not drawn)
MIC [2]: 0.05 µg/mL (≈ 0.12 µM)

COc1c(N2CC/C(=N/Oc3ccc(Cl)cc3)C(N)C2)c(F)cc2c(=O)c(C(=O)O)cn(C3CC3)c12 (stereo not drawn)
MIC [17]: 0.008 µg/mL (≈ 0.0155 µM)

COc1ccc(C(=O)N2CCN(C(=O)N3CCN(c4ccc5c(=O)c(C(=O)O)cn(C6CC6)c5c4)CC3)CC2)cc1OC
MIC [7]: < 0.016 µg/mL | MBC [8]: ≥ 128 µg/mL

C[C@H]1COc2c(N3CCN(C)CC3)c(F)cc3c(=O)c(C(=O)O)cn1c23.C[C@H]1COc2c(N3CCN(C)CC3)c(F)cc3c(=O)c(C(=O)O)cn1c23.O [LEVOFLOXACIN]
MIC [15]: 16 µg/mL | MIC [17]: 32 µg/mL | MIC [18]: 0.06 µg/mL | MIC [2]: 1.56 µg/mL | MIC [14]: 0.5 µg/mL

C[C@@H](O)[C@H]1C(=O)N2C(C(=O)O)=C(COC(=O)N[C@H]3CCC(c4c(F)cc5c(=O)c(C(=O)O)cn(C6CC6)c5c4F)C3)S[C@H]12 (stereo partly drawn)
MIC [19]: ≤ 0.06 µg/mL | MIC [20]: 4 µg/mL (≈ 6.46 µM)
